{"source": "paper PMC6838110", "about": "(Nature Communications, 2019)", "key": {"[1]": {"test_system": "HBCx-17 TNBC PDX", "experiment": "PDX efficacy study", "assay_type": "in vivo, mice", "conditions": "olaparib 100 mg kg−1 qd single agent", "protocol": "(§1) Immunocompromised SCID (C.B-17/IcrHan®Hsd-Prkdc^scid) or Hsd:Athymic Nude-Foxn1^nu female mice (Envigo) were used for tumour implantation. […] When dosed twice daily, the time between the morning and evening doses was 8 h. Targeted irradiation of 2 Gy was delivered over 2 min daily over the first 5 days of treatment. Liposomal doxorubicin (Doxoves) was diluted in physiological saline and intravenously dosed at 2.5 or 5 mg kg^−1 once per week. Olaparib was formulated in 10% DMSO/30% Kleptose and orally dosed at 100 mg kg^−1 once daily. […] Statistical significance was evaluated using a one-tailed t-test. All in vivo studies complied with all relevant ethical regulations for animal testing and research, followed AstraZeneca’s global bioethics policy and received ethical approval from the AstraZeneca ethical committee. HBCx-17 PDX study was carried out at XenTech, France in accordance with French regulatory legislation concerning the protection of laboratory animals. CTG-703, CTG-0828 and CTG-0149 PDX studies were carried out at Champions Oncology, Inc., USA in accordance to the guidelines of the Institutional Animal Care and Use Committee (IACUC) of Champions Oncology and the USA regulatory legislation. CDX and OV2022 PDX studies were conducted in the UK in accordance with UK Home Office legislation, the Animal Scientific Procedures Act 1986 and the Home Office project licences 70/8839, 70/8894 and P0EC1FFDF. […]\n(§2) SCID mice were surgically implanted subcutaneously with tumour fragments from donor mice. Tumours were measured (length x width) by bilateral Vernier calliper measurements and tumour volume calculated using Mousetrap software. Mice were randomized into […]\ntreatment groups when mean tumour volume reached ~0.2 cm 3."}, "[2]": {"test_system": "FaDu ATM KO xenografts", "experiment": "Xenograft efficacy study with olaparib", "assay_type": "in vivo, mice", "conditions": "continuous olaparib 100 mg kg−1 qd single agent", "protocol": "Immunocompromised SCID (C.B-17/IcrHan®Hsd-Prkdc^scid) or Hsd:Athymic Nude-Foxn1^nu female mice (Envigo) were used for tumour implantation. […] When dosed twice daily, the time between the morning and evening doses was 8 h. Targeted irradiation of 2 Gy was delivered over 2 min daily over the first 5 days of treatment. Liposomal doxorubicin (Doxoves) was diluted in physiological saline and intravenously dosed at 2.5 or 5 mg kg^−1 once per week. Olaparib was formulated in 10% DMSO/30% Kleptose and orally dosed at 100 mg kg^−1 once daily. […] Statistical significance was evaluated using a one-tailed t-test. […]\nTumours were measured (length x width) by bilateral Vernier calliper measurements and tumour volume calculated using Mousetrap software. […]\nHPMC/T. Tumour growth inhibition from start of treatment was assessed by co mparison of the mean change in tumour volume for the control and treated groups, using the Mousetrap application and represented as tumour growth inhibition (TGI). Statistical significance was evaluated using a one-tailed t-test. […]\nwas prepared using an appropriate dilution factor and compared against an 11-point standard calibration curve (1–10,000 nM) prepared in DMSO and spiked into bl ank plasma. […] Supernatant (50 µL) was then diluted in 300 µL water and analysed with ultra-performance liquid chromatography–tandem mass […]"}, "[3]": {"test_system": "FaDu and A549 ATM KO cells", "experiment": "Colony formation assay, olaparib, ATM KO versus WT isogenic pairs", "assay_type": "cell-based, human", "conditions": "olaparib single agent", "protocol": "(§3) Graphs represent percentage viable cells ± SD following 7 days' treatment relative to DMSO vehicle-treated controls from one representative experiment of at least three independent experiments. […] Mean pGI50 (-log [GI50]) ± SEM, geometric mean GI50, number of experimental repeats (n) and 95% confidence interval are described. C) Colony formation assay was performed on FaDu and A549 ATM KO and WT cells treated with increasing concentrations of olaparib. Graphs represent percentage surviving fraction of colonies ± SD following 10- 14 days' treatment relative to DMSO vehicle-treated control from one representative experiment of three independent experiments. […] Optimized image algorithms were used to evaluate phenotypic response s using nuclear staining with Hoechst (cell cycle, micronuclei, nuclear fragmentation ), as well as to quantify the response of DNA damage response markers (foci numbers and total signal […] SDS-PAGE and Western blotting of samples Protein lysates were generated by scraping cells in radioimmunoprecipitation assay […] and protease and phosphatase inhibitor tablets (Roche) following compound treatments at indicated time points. Protein concentration was determined using the BCA protein assay kit (ThermoFisher). Proteins were separated by SDS -PAGE on NuPAGE® 4-12% […] membranes using the iBlot ® dry blotting system (ThermoFisher). […]"}, "[4]": {"test_system": "CTG-0149 H&N PDX", "experiment": "PDX efficacy study", "assay_type": "in vivo, mice", "conditions": "olaparib single agent", "protocol": "as §1, §2\n(§4) treatment groups when mean tumour volume reached ~0.2 cm 3. AZD7648 was formulated in 0.5% hydroxypropyl methylcellulose (HPMC)/0.1% Tween80 (HPMC/T) and orally dosed (4–100 mg/kg). When dosed twice daily (bid), the time between the morning and evening doses was 8 hours. Targeted irradiation of 2 Gy was delivered over 2 minutes daily over the first 5 days of treatment. Liposomal doxorubicin (Doxoves) was diluted in physiological saline and intravenously dosed at 2.5 or 5 mg/kg once per week. Olaparib was formulated in 10% DMSO/30% Kleptose and orally dosed at 100 mg/kg once daily.\n(§5) HPMC/T. Tumour growth inhibition from start of treatment was assessed by co mparison of the mean change in tumour volume for the control and treated groups, using the Mousetrap application and represented as tumour growth inhibition (TGI). Statistical significance was evaluated using a one-tailed t-test. HBCx-17 PDX study was carried out at XenTech, France in accordance with French regulatory legislation concerning the protection of laboratory animals. CTG-703, CTG-0828 and CTG-0149 PDX studies were carried out at Champions Oncology, Inc., USA in accordance to the guidelines of the Institutional Animal Care and Use Committee (IACUC) of Champions Oncology and the USA regulatory legislation. CDX and OV2022 PDX studies were conducted in the UK in accordance with UK Home Office legislation, the Animal Scientific Procedures Act 1986, and AstraZeneca’s global bioethics policy. Experimental details are outlined in Home […]\n(§6) Blood samples were taken via venipuncture of the tail vein. Whole blood was mixed 1: 5 with PBS and centrifuged at 1500g for 3 minutes at 4°C, and the plasma was extracted […]\n(§7) was prepared using an appropriate dilution factor and compared against an 11-point standard calibration curve (1–10,000 nM) prepared in DMSO and spiked into bl ank plasma. Acetonitrile (100 µL) was added with the internal standard, followed by centrifugation at 3000 rpm for 10 minutes. Supernatant (50 µL) was then diluted in 300 µL water and analysed with ultra-performance liquid chromatography–tandem mass […]\n(§8) Xenograft sample preparation\n(§9) Animals were euthanized and tumour samples snap frozen in liquid nitrogen or fixed in formalin and paraffin embedded for subsequent analysis. Tumour pieces were lysed in […]"}, "[5]": {"test_system": "CTG-0828 NSCLC PDX", "experiment": "PDX efficacy study", "assay_type": "in vivo, mice", "conditions": "olaparib single agent", "protocol": "as §1, §2, §4, §5, §6, §7, §8, §9"}, "[6]": {"test_system": "CTG-703 ovarian PDX", "experiment": "PDX efficacy study", "assay_type": "in vivo, mice", "conditions": "olaparib single agent", "protocol": "as §1, §2, §4, §5, §6, §7, §8, §9"}, "[7]": {"test_system": "OV2022 ovarian PDX", "experiment": "PDX efficacy study", "assay_type": "in vivo, mice", "conditions": "olaparib single agent", "protocol": "as §1, §2, §4, §5, §6, §7, §8, §9"}, "[8]": {"test_system": "FaDu ATM KO cells", "experiment": "Clonogenic survival (colony formation assay)", "assay_type": "cell-based", "conditions": "Homo sapiens", "protocol": "as §3"}}, "data": [{"smiles": "O=C(c1cc(Cc2n[nH]c(=O)c3ccccc23)ccc1F)N1CCN(C(=O)C2CC2)CC1", "note": "[olaparib]", "values": [{"measurement": "tumour regression", "setting": "[1]", "value": 42, "unit": "%"}, {"measurement": "tumours regressed on day 70 (last day of dosing)", "setting": "[1]", "value": "four tumours out of nine"}, {"measurement": "tumours regressed on day 70 (last day of dosing)", "setting": "[1]; listed as Olaparib", "value": "4/9"}, {"measurement": "TGI", "setting": "[2]", "value": 50, "unit": "%"}, {"measurement": "greater sensitivity of ATM KO cells compared with isogenic WT cells", "setting": "[3]", "value": "> 10", "unit": "fold"}, {"measurement": "sensitivity of the model to olaparib", "setting": "[4]", "value": "insensitive"}, {"measurement": "sensitivity of the model to olaparib", "setting": "[5]", "value": "insensitive"}, {"measurement": "TGI", "setting": "[6]", "value": 100, "unit": "%"}, {"measurement": "TGI", "setting": "[7]", "value": 65, "unit": "%"}, {"measurement": "IC50", "setting": "[8]", "value": "~100", "unit": "nM"}]}]}
